Data reported in paper PMC9082340 (ACS applied materials & interfaces, 2020).
Ends that are not written are not given here.

Key:
[1] = system: HEK-293 T cells expressing PH-LgBiT; assay: NanoLuc; format: cell-based; conditions: PyB 25–200 μM in PBS 5 min before 1 μM YARA-HiBiT or R6-HiBiT (Figure S29)
HEK-293 T cells = format: cell-based; conditions: pyrene butyrate treatment
[2] = previous literature reports; cited from earlier work
[3] = system: A7r5 rat aortic vascular smooth muscle cells; assay: Cell viability; format: cell-based; conditions: 10 μM peptide, A7r5 cells (Figure S19-G)

| Molecule | Increase in activity over peptide alone with pyrene butyrate [1] [fold] | Cell viability at 100 μM (29 μg/mL) (HEK-293 T cells) [%] | Cell viability at 200 μM (58 μg/mL) (HEK-293 T cells) [%] | Activity enhancement reported for pyrene butyrate [2] | Toxicity of peptide dose [3] |
| --- | --- | --- | --- | --- | --- |
| O=C(O)CCCc1ccc2ccc3cccc4ccc1c2c34 [pyrene butyrate, 1-pyrenebutyric acid] | ≤ 1.3 | 65 | 57 | 1.5–5 fold | – |
| YARAAARQARAKALARQLGVAA [YARA-MK2i] | – | – | – | – | nontoxic |
